Results as given in patent US20260184707A1, “PHARMACEUTICAL COMPOUNDS FOR THE TREATMENT OF COMPLEMENT MEDIATED DISORDERS” (ALEXION PHARMACEUTICALS, INC., priority 2022, published 2026).

Target: T1, Human complement C1s enzyme (Homo sapiens, UniProt P09871)
T1 construct: purified from human serum, Complement Technology, Inc; purchased Complement Technology, Inc; host or cells: human serum (plasma-derived native protein)
T1 sequence (P09871 438-688 limits assumed): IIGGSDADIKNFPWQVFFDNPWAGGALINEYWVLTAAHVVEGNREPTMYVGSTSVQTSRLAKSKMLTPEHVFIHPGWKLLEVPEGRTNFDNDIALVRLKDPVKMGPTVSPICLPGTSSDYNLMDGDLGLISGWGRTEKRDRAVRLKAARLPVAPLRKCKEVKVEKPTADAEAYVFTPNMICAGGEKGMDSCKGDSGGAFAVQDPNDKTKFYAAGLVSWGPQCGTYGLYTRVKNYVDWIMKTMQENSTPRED
T1 sequence (P09871 16-437 partner limits assumed): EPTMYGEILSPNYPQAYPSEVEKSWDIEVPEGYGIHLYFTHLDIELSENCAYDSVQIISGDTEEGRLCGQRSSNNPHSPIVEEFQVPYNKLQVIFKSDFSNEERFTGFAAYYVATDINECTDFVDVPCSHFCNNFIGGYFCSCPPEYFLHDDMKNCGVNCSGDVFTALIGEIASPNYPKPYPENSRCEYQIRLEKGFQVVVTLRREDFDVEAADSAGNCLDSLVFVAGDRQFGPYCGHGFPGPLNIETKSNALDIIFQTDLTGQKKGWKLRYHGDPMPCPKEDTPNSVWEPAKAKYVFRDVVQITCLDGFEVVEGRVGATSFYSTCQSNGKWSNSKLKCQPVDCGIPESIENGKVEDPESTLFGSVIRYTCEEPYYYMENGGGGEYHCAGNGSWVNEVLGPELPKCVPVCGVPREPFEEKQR
Assay: Human C1s enzyme assay
Type: biochemical
Conditions: human complement C1s enzyme 1.16 nM, substrate Z-L-Lys-SBzl, A405; read-out: IC50 (Stars)
Method in brief: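 Serum-purified human C1s (1.16 nM final) preincubated 5 min at room temperature with compound in 50 mM Tris, 1 M NaCl, pH 7.5. Z-L-Lys-SBzl and DTNB added at 100 μM each; A405 recorded every 30 s. IC50 from nonlinear regression of reaction rates versus compound concentration.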

**Q.** For O=C(Cn1c(-c2ccccc2)ncc(NCc2cc(-c3ccccc3)ns2)c1=O)NCc1cc2cnccc2[nH]1 [Compound 458, N-((1H-pyrrolo[3,2-c]pyridin-2-yl)methyl)-2-(6-oxo-2-phen-yl-5-(((3-phenylisothiazol-5-yl)methyl)amino)pyrimidin-1(6H)-yl)acetamide], which IC50 is on record?
**A.** < 100 nM

**Q.** With C[C@@H](Nc1cnc(N2CCCCC2)n(CC(=O)NCc2cc3cnccc3[nH]2)c1=O)c1coc(-c2ccccc2)n1 [Compound 460, (R)-N-((1H-pyrrolo[3,2-c]pyridin-2-yl)methyl)-2-(6-oxo-5-((1-(2-phenyloxazol-4-yl)-ethyl)amino)-2-(piperidin-1-yl)pyrimidin-1(6H)-yl)acet-amide] as the compound, how does the IC50 read?
**A.** 100 to 1000 nM

**Q.** How did the IC50 turn out when C[C@@H](Nc1cnc(N2CCOCC2)n(CC(=O)NCc2cc3cnccc3[nH]2)c1=O)c1coc(-c2ccccc2)n1 [Compound 461, (R)—N-((1H-Pyrrolo[3,2-c]pyridine-2-yl)methyl)-2-(2-morpholino-6-oxo-5-((1-(2-phenyloxazol-4-yl)ethyl)amino)pyrimidin-1(6H)-yl)acetamide] was run?
**A.** < 100 nM

**Q.** For C[C@@H](Nc1cnc(N2CCCCC2)n(CC(=O)NCc2cc3cnccc3[nH]2)c1=O)c1cnc(-c2ccccc2)s1 [Compound 462, (R)-N-((1H-pyrrolo[3,2-c]pyridin-2-yl)methyl)-2-(6-oxo-5-((1-(2-phenylthiazol-5-yl)ethyl)amino)-2-(piperidin-1-yl)pyrimidin-1(6H)-yl)acet-amide], which IC50 is on record?
**A.** < 100 nM

**Q.** For C[C@@H](Nc1cnc(N2CCCCC2)n(CC(=O)NCc2cc3cnccc3[nH]2)c1=O)c1csc(-c2ccccc2)n1 [Compound 463, (R)-N-((1H-pyrrolo[3,2-c]pyridin-2-yl)methyl)-2-(6-oxo-5-((1-(2-phenylthiazol-4-yl)-ethyl)amino)-2-(piperidin-1-yl)-pyrimidin-1(6H)-yl)acetamide], which IC50 is on record?
**A.** 100 to 1000 nM

**Q.** Which IC50 does the source give for CC(=O)N1CCN(c2ncc(N[C@H](C)c3ccc4oc5ccccc5c4c3)c(=O)n2CC(=O)NCc2cc3cnccc3[nH]2)CC1 [Compound 466, (R)-N-((1H-pyrrolo[3,2-c]pyridin-2-yl)methyl)-2-(2-(4-acetylpiperazin-1-yl)-5-((1-(dibenzo[b,d]furan-2-yl)ethyl)-amino)-6-oxopyrimidin-1(6H)-yl)acetamide] here?
**A.** < 100 nM

**Q.** Which IC50 does the source give for COC[C@H]1CCCN(c2ncc(N[C@H](C)c3ccc4oc5ccccc5c4c3)c(=O)n2CC(=O)NCc2cc3cnccc3[nH]2)C1 [Compound 467, N-((1H-pyrrolo[3,2-c]pyridin-2-yl)methyl)-2-(5-(((R)-1-(dibenzo[b,d]furan-2-yl)ethyl)-amino)-2-((S)-3-(methoxy-methyl)piperidin-1-yl)-6-oxo-pyrimidin-1(6H)-yl)acetamide] here?
**A.** > 1000 nM

**Q.** How did the IC50 turn out when C[C@@H](Nc1cnc(N2CCN(C(=O)C3CC3)CC2)n(CC(=O)NCc2cc3cnccc3[nH]2)c1=O)c1ccc2oc3ccccc3c2c1 [Compound 468, (R)-N-((1H-pyrrolo[3,2-c]pyridin-2-yl)methyl)-2-(2-(4-(cyclopropanecarbonyl)piper-azin-1-yl)-5-((1-(dibenzo[b,d]furan-2-yl)ethyl)amino)-6-oxopyrimidin-1(6H)-yl)acet-amide] was run?
**A.** 100 to 1000 nM

**Q.** With COC[C@H]1CN(c2ncc(N[C@H](C)c3ccc4oc5ccccc5c4c3)c(=O)n2CC(=O)NCc2cc3cnccc3[nH]2)CCO1 [Compound 469, N-((1H-pyrrolo[3,2-c]pyridin-2-yl)methyl)-2-(5-(((R)-1-(dibenzo[b,d]furan-2-yl)ethyl)-amino)-2-((R)-2-(methoxy-methyl)morpholino)-6-oxo-pyrimidin-1(6H)-yl)acetamide] as the compound, how does the IC50 read?
**A.** 100 to 1000 nM

**Q.** How did the IC50 turn out when C[C@@H](Nc1ncc(N2CCC(O)CC2)n(CC(=O)NCc2cc3cnccc3[nH]2)c1=O)c1ccc2oc3ccccc3c2c1 [Compound 470, (R)-N-((1H-pyrrolo[3,2-c]pyridin-2-yl)methyl)-2-(3-((1-(dibenzo[b,d]furan-2-yl)ethyl)-amino)-6-(4-hydroxypiperidin-1-yl)-2-oxopyrazin-1(2H)-yl)-acetamide] was run?
**A.** < 100 nM

**Q.** C[C@@H](Nc1ncc(C2CCOCC2)n(CC(=O)NCc2cc3cnccc3[nH]2)c1=O)c1ccc2oc3ccccc3c2c1 [Compound 471, (R)—N-((1H-Pyrrolo[3,2-c]pyridine-2-yl)methyl)-2-(3-((1-(dibenzo[b,d]furan-2-yl)ethyl)amino)-2-oxo-6-(tetrahydro-2H-pyran-4-yl)pyrazin-1(2H)-yl)acetamide] was tested. Which IC50 did it give?
**A.** < 100 nM

**Q.** How did the IC50 turn out when O=C(Cn1c(N2CCCCC2)cnc(NCc2nnc(-c3ccccc3)s2)c1=O)NCc1cc2cnccc2[nH]1 [Compound 472, N-((1H-pyrrolo[3,2-c]pyridin-2-yl)methyl)-2-(2-oxo-3-(((5-phenyl-1,3,4-thiadiazol-2-yl)-methyl)amino)-6-(piperidin-1-yl)pyrazin-1(2H)-yl)acetamide] was run?
**A.** < 100 nM

**Q.** How did the IC50 turn out when O=C(Cn1c(N2CCCCC2)cnc(NCc2cc(-c3ccccc3)no2)c1=O)NCc1cc2cnccc2[nH]1 [Compound 473, N-((1H-pyrrolo[3,2-c]pyridin-2-yl)methyl)-2-(2-oxo-3-(((3-phenylisoxazol-5-yl)methyl)-amino)-6-(piperidin-1-yl)pyr-azin-1(2H)-yl)acetamide] was run?
**A.** < 100 nM

**Q.** For Cc1cnc(CNc2ncc(N3CCCCC3)n(CC(=O)NCc3cc4cnccc4[nH]3)c2=O)o1 [Compound 474, N-((1H-pyrrolo[3,2-c]pyridin-2-yl)methyl)-2-(3-(((5-methyl-oxazol-2-yl)methyl)amino)-2-oxo-6-(piperidin-1-yl)pyr-azin-1(2H)-yl)acetamide], which IC50 is on record?
**A.** < 100 nM

**Q.** For C[C@@H](Nc1cnc(N2CCCCC2)n(CC(=O)NCc2cc3cnccc3[nH]2)c1=O)c1coc(-c2ccccc2F)n1 [Compound 475, (R)—N-((1H-Pyrrolo[3,2-c]pyridine-2-yl)methyl)-2-(5-((1-(2-(2-fluorophenyl)oxazol-4-yl)ethyl)amino)-6-oxo-2-(piperidin-1-yl)pyrimidin-1(6H)-yl) acetamide], which IC50 is on record?
**A.** 100 to 1000 nM

**Q.** With C[C@@H](Nc1cnc(C2CCCC2)n(CC(=O)NCc2cc3cnccc3[nH]2)c1=O)c1coc(-c2ccccc2)n1 [Compound 476, (R)-N-((1H-pyrrolo[3,2-c]pyridin-2-yl)methyl)-2-(2-cyclopentyl-6-oxo-5-((1-(2-phenyloxazol-4-yl)ethyl)-amino)pyrimidin-1(6H)-yl)-acetamide] as the compound, how does the IC50 read?
**A.** 100 to 1000 nM

**Q.** O=C(Cn1c(N2CCCCC2)cnc(NCc2cc(-c3ccccc3)ns2)c1=O)NCc1cc2cnccc2[nH]1 [Compound 477, N-((1H-pyrrolo[3,2-c]pyridin-2-yl)methyl)-2-(2-oxo-3-(((3-phenylisothiazol-5-yl)methyl)-amino)-6-(piperidin-1-yl)pyr-azin-1(2H)-yl)acetamide] was tested. Which IC50 did it give?
**A.** < 100 nM

**Q.** How did the IC50 turn out when O=C(Cn1c(N2CCCCC2)cnc(NCc2noc(-c3ccccc3)n2)c1=O)NCc1cc2cnccc2[nH]1 [Compound 478, N-((1H-pyrrolo[3,2-c]pyridin-2-yl)methyl)-2-(2-oxo-3-(((5-phenyl-1,2,4-oxadiazol-3-yl)-methyl)amino)-6-(piperidin-1-yl)pyrazin-1(2H)-yl)acetamide] was run?
**A.** < 100 nM

**Q.** How did the IC50 turn out when O=C(Cn1c(N2CCCCC2)cnc(NCc2cc(-c3ccccc3F)on2)c1=O)NCc1cc2cnccc2[nH]1 [Compound 479, N-((1H-pyrrolo[3,2-c]pyridin-2-yl)methyl)-2-(3-(((5-(2-fluorophenyl)isoxazol-3-yl)-methyl)amino)-2-oxo-6-(piper-idin-1-yl)pyrazin-1(2H)-yl)-acetamide] was run?
**A.** < 100 nM
